Experimental data: article PMC2818847 (PLoS ONE, 2010)

Target: T1, Py235 (reticulocyte binding protein), nucleotide binding domain NBD94 (Plasmodium yoelii, UniProt Q7RPU0)
T1 construct: gene PY01365
Assay: fluorescence correlation spectroscopy titration

Substance: EDA-ADP ATTO-647N
- Kd: 331 ± 1.8 µM

Substance: EDA-ATP ATTO-647N
- Kd: 228 ± 2.3 µM
